According to patent publication US11028061B2, “Modulators of myocyte lipid accumulation and insulin resistance and methods of use thereof” (Sanford Burnham Prebys Medical Discovery Institute, priority 2015, dated 2021):

Experiments:
[1] = tested on: primary murine skeletal myocytes; assay: TAG accumulation in primary murine skeletal myocytes; assay type: cell-based; conditions: Mus musculus; primary murine skeletal myocytes; read-out: Activity Score (IC50), triacylglyceride (TAG) accumulation
[2] = tested on: C57BL/6 mice with diet-induced obesity; assay: Diet-induced obesity (60% high fat diet) mouse study; assay type: in vivo; conditions: HFD mice
Protocol: Following a 5 hour fast, a blood sample was obtained from the tail tip for the measurement of baseline glucose using a hand-held glucometer (Accu-Chek Aviva Plus, Roche). A bolus of glucose (1 g/kg) was then administered via i.p. injection. Blood samples were obtained at 5, 15, 30, 60 and 90 minutes following the glucose bolus for measurement of blood glucose. For detection of insulin signaling, mice were fasted for 5 hours on the last day of the study. Gastrocnemius skeletal muscle and liver tissues were harvested 10 minutes after an acute insulin administration (1.5 U/kg, i.p.) and immediately snap frozen. The tissue samples were homogenized in RIPA buffer containing 1% NP-40, 5 mM Na4P2O7, 1 mM EDTA, 20 mM NaF, 2 mM Na3VO4, 1× Complete protease inhibitor (Roche) and 1 mM phenylmethylsulfonyl fluoride. Western blot analysis for levels of phospho-Akt (S473) and total Akt was then performed.
(§1) All animal studies were performed in accordance with the National Institute of Health guidelines for humane treatment of animals and approved by the IACUC of the Sanford Burnham Prebys Medical Discovery Institute at Lake Nona. Six week old male C57BL/6J mice were obtained from Jackson Laboratory (stock number 000664) and acclimated for 1 week prior to study. Mice were maintained on standard chow or a 60% high fat diet (Research Diets, USA) for 8 weeks. SBI-993 was dissolved in a vehicle containing 2% DMSO, 2% Tween-80, and 96% water (pH9.0). Seven weeks after HFD feeding, mice were subcutaneously injected with SBI-993 (50 mg/kg mouse body weight) once daily for 7 days. Each group contains 6-10 mice and three independent experiments were conducted.
(§2) To determine if the effects conferred by SBI-477 observed in myocytes in culture are relevant in vivo, studies were conducted in C57BL/6 mice with diet-induced obesity. […] Mice were fed a 60% high fat diet (HFD) for 8 weeks resulting in significant weight gain (FIG. 6I). During the final week of HFD feeding, SBI-993 or vehicle control was administered as a once daily dose (50 mg/kg s.c.) for 7 days.

human skeletal myotubes = assay: Triglyceride accumulation in oleate-loaded human skeletal myotubes; assay type: cell-based
Protocol: Human skeletal myotubes were differentiated for 8 days. On day 7, 100 μM of oleic acid complexed to fatty acid-free BSA was added to the cells with the indicated concentration of test compound for 24 hours. Following incubation with oleate and compound, cells were formaldehyde fixed and stained with AdipoRed™ (Lonza). Triglyceride accumulation was measured using signal intensity at excitation 540/emission 590 nm (Bio-Tek Instruments, Inc.). Dose response curves were generated in Prism 6 (GraphPad Software). EC50 values were calculated using non-linear regression analysis. For biochemical measurement of triglyceride, human skeletal myotubes were incubated with oleate-BSA and test compound as described above. After 24 hour incubation, cells were collected with a lysis buffer containing 0.1% IGEPAL CA-630 (Sigma-Aldrich) in PBS. The harvested cells were sonicated for 5 seconds and then centrifuged at 10,000×g for 10 minutes at 4° C. The supernatant was removed and stored on ice. TAG levels were quantified using Infinity™ Triglycerides Liquid Stable Reagent (Thermo Scientific), following the manufacturer's instructions for colorimetric assay.
Student's t-test, Mann Whitney test, one-way ANOVA with Bonferroni post hoc test, or two-way ANOVA with Tukey post hoc test was performed to determine statistical significance as indicated. […]

ARRDC4 = ARRDC4 expression by quantitative RT-PCR in human myotubes; assay type: cell-based; conditions: 24 hours
Protocol: FIGS. 4A-C show downregulation of TXNIP and ARRDC4 expression by SBI-477. (FIG. 4A) TXNIP and ARRDC4 mRNA levels as determined by quantitative RT-PCR in human myotubes treated with SBI-477 (10 μM) or DGAT1 inhibitor (DGATi, […]) for 24 hours in the absence or presence of 100 μM oleate (n=4). Expression is shown relative to vehicle/BSA treatment. (FIG. 4B) TXNIP gene expression following exposure to a dose range of SBI-477 for 24 hours (n=4). (FIG. 4C) Left, Effect of SBI-477 on TXNIP protein levels as determined by western blot analysis by SBI-477. Right, Quantitation of the TXNIP western blot data is shown (n=5). *p<0.05 vs. Vehicle/BSA control, †p<0.05 vs. Vehicle/oleate by one-way ANOVA with Bonferroni post hoc test. The data are shown as mean±SD.
Total RNA was isolated using RNeasy Mini Kit (Qiagen) according to the manufacturer's instructions. cDNA was synthesized using the Affinity Script cDNA Synthesis Kit (Stratagene) with 0.5 μg of total RNA. PCR reactions were performed in triplicate […] Roche LightCycler® 480 Instrument II) with specific primers for each gene.

[3] = Plasma concentration in high fat diet mice; assay type: in vivo; conditions: male, C57BL/6J, mouse, sc, 4 hours following the final dose, 50 mg/kg s.c. once daily for 7 days
Protocol: as §1, §2

[4] = muscle and liver, 50 mg/kg s.c. 7 days

IC50 [1]: < 1000 nM | Food intake ([2]; data not shown): not due to reduced food intake | concentration at 4 h [3]: 4.97 ± 0.97 µM
SMILES: COc1ccc(-c2csc(NC(=O)c3ccc(NCC(=O)N4CCOCC4)cc3)n2)cc1 [Cpd. 66, N-(4-(4-methoxyphenyl)thiazol-2-yl)-4-((2-morpholino-2-oxoethyl)amino)benzamide]
Glucose tolerance (1 g/kg glucose, i.p.) ([2]; 50 mg/kg s.c. 7 days): improved glucose tolerance | Hepatic steatosis ([2]; 50 mg/kg s.c. 7 days): substantially ameliorated | TAG levels in skeletal muscle ([2]; 50 mg/kg s.c. 7 days): significantly reduced | Body weight compared to vehicle ([2]; 50 mg/kg s.c. once daily for 7 days): small but significant reduction | Occupation of ChREBP and MondoA on Txnip and Pklr gene promoters (ChIP) ([2]; liver, 1 week administration): reduced in liver | Insulin signaling (phosphorylated Akt S473) after acute insulin challenge ([2]; muscle and liver): improved insulin signaling | Expression of TAG synthesis and lipogenic genes [2, 4]: reduced the expression | Txnip and Arrdc4 expression [2, 4]: reduced Txnip and Arrdc4 expression | Potency compared with SBI-477 (inhibition of triglyceride accumulation, FIG. 6H) (human skeletal myotubes): improved potency | ARRDC4 expression (ARRDC4): to a similar degree as SBI-477
